Laboratory results: US8741806B2, “Herbicides” (Syngenta Limited, priority 2009, dated 2014)

How the values were obtained:
Assay type in all cases: in vivo
[1] = tested on: Alopecurus myosuroides (ALOMY); experiment: Example B pre-emergence herbicidal activity, glasshouse pot test; settings: 312 h, rate 250 g/ha, evaluated after 13 days, scale 0-100, read-out: Pre-emergence activity ALOMY (100=total damage to plant; 0=no damage to plant)
Experimental: (§1) Seeds of a variety of test species were sown in standard soil in pots. After cultivation for one day (pre-emergence) or after 8 days cultivation (post-emergence) under controlled conditions in a glasshouse (at 24/16° C., day/night; 14 hours light; 65% humidity), the plants were sprayed with an aqueous spray solution derived from the formulation of the technical active ingredient of formula I in acetone/water (50:50) solution containing 0.5% Tween 20 (polyoxyethelyene sorbitan monolaurate, CAS RN 9005-64-5). The test plants were then grown in a glasshouse under controlled conditions in a glasshouse (at 24/16° C., day/night; 14 hours light; 65% humidity) and watered twice daily. After 13 days for pre and post-emergence, the test was evaluated (100=total damage to plant; 0=no damage to plant). Setaria faberi (SETFA), Lolium perenne (LOLPE), Alopecurus myosuroides (ALOMY), Echinochloa crus-galli (ECHCG), and Avena fatua (AVEFA). Pre-Emergence Activity

Avena fatua (AVEFA) [2] = experiment: as above; settings: 312 h, rate 250 g/ha, evaluated after 13 days, scale 0-100, read-out: Pre-emergence activity AVEFA (100=total damage to plant; 0=no damage to plant)
Experimental: as §1

[3] = tested on: Echinochloa crus-galli (ECHCG); experiment: as above; settings: 312 h, rate 250 g/ha, evaluated after 13 days, scale 0-100, read-out: Pre-emergence activity ECHCG (100=total damage to plant; 0=no damage to plant)
Experimental: as §1

Lolium perenne (LOLPE) [4] = experiment: as above; settings: 312 h, rate 250 g/ha, evaluated after 13 days, scale 0-100, read-out: Pre-emergence activity LOLPE (100=total damage to plant; 0=no damage to plant)
Experimental: as §1

[5] = tested on: Alopecurus myosuroides (ALOMY); experiment: Example B post-emergence herbicidal activity, glasshouse pot test; settings: 312 h, rate 250 g/ha, evaluated after 13 days, scale 0-100, read-out: Post-emergence activity ALOMY (100=total damage to plant; 0=no damage to plant)
Experimental: as §1, with “Post-Emergence” for “Pre-Emergence”

Avena fatua (AVEFA) [6] = experiment: as above; settings: 312 h, rate 250 g/ha, evaluated after 13 days, scale 0-100, read-out: Post-emergence activity AVEFA (100=total damage to plant; 0=no damage to plant)
Experimental: as §1, with “Post-Emergence” for “Pre-Emergence”

[7] = tested on: Echinochloa crus-galli (ECHCG); experiment: as above; settings: 312 h, rate 250 g/ha, evaluated after 13 days, scale 0-100, read-out: Post-emergence activity ECHCG (100=total damage to plant; 0=no damage to plant)
Experimental: as §1, with “Post-Emergence” for “Pre-Emergence”

Lolium perenne (LOLPE) [8] = experiment: as above; settings: 312 h, rate 250 g/ha, evaluated after 13 days, scale 0-100, read-out: Post-emergence activity LOLPE (100=total damage to plant; 0=no damage to plant)
Experimental: as §1, with “Post-Emergence” for “Pre-Emergence”

| Structure (SMILES) | pest or weed control at 250 g/ha [1] [%] | pest or weed control at 250 g/ha (Avena fatua (AVEFA) [2]) [%] | pest or weed control at 250 g/ha [3] [%] | pest or weed control at 250 g/ha (Lolium perenne (LOLPE) [4]) [%] | pest or weed control at 250 g/ha [5] [%] | pest or weed control at 250 g/ha (Avena fatua (AVEFA) [6]) [%] | pest or weed control at 250 g/ha [7] [%] | pest or weed control at 250 g/ha (Lolium perenne (LOLPE) [8]) [%] |
| --- | --- | --- | --- | --- | --- | --- | --- | --- |
| CCc1ccc(-c2ccc(Cl)nc2)cc1C1=C(O)C(C)(C)CCC1=O [Compound T11] | 0 | 0 | 20 | 0 | 60 | 60 | 90 | 60 |
| CCc1ccc(-c2ccc(Cl)cc2C)cc1C1=C(O)C(C)(C)CCC1=O [Compound T4, 2-(4′-chloro-4-ethyl-2′-methylbiphen-3-yl)-4,4-dimethylcyclohexane-1,3-dione] | 20 | 0 | 90 | 40 | 0 | 0 | 100 | 50 |
| CCc1ccc(-c2ccc(Cl)cc2Cl)cc1C1=C(O)CCCC1=O [Compound T44] | 0 | 0 | 90 | 80 | 30 | 0 | 100 | 80 |
| CCc1ccc(-c2ccc(Cl)s2)cc1C1=C(O)CCCC1=O [Compound T55] | 20 | 0 | 40 | 20 | 40 | 10 | 100 | 60 |
| CCc1ccc(-c2ccc(Cl)nc2)cc1C1=C(O)CCCC1=O [Compound T42] | 0 | 0 | 20 | 0 | 50 | 20 | 100 | 50 |
| CCc1ccc(-c2ccc(Cl)c(Cl)c2)cc1C1=C(O)C(C)(C)CCC1=O [Compound T5] | 0 | 0 | 0 | 0 | 70 | 90 | 100 | 80 |
| CCc1ccc(-c2cc(Cl)c(Cl)cc2Cl)cc1C1=C(O)C(C)(C)CCC1=O [Compound T20] | 0 | 0 | 90 | 50 | 0 | 40 | 80 | 70 |
| CCc1ccc(-c2ccc(Cl)c(Cl)c2F)cc1C1=C(O)C(C)(C)CCC1=O [Compound T17] | 0 | 0 | 80 | 0 | 0 | 0 | 90 | 40 |
| CCc1ccc(-c2ccc(Cl)c(F)c2Cl)cc1C1=C(O)C(C)(C)CCC1=O [Compound T15] | 0 | 0 | 100 | 90 | 0 | 40 | 100 | 50 |
| CCc1ccc(-c2ccc(Cl)c(F)c2)cc1C1=C(O)CC(C)(C)CC1=O [Compound T33] | 0 | 20 | 90 | 90 | 100 | 80 | 100 | 100 |
| CCc1ccc(-c2c(F)cc(Cl)cc2F)cc1C1=C(O)CCCC1=O [Compound T58] | 20 | 0 | 90 | 70 | 60 | 90 | 100 | 90 |
| CCc1ccc(-c2ccc(Cl)c(Cl)c2)cc1C1=C(O)CCCC1=O [Compound T49] | 20 | 60 | 100 | 100 | 50 | 80 | 100 | 90 |
| CCc1ccc(-c2ccc(Cl)c(OC)c2)cc1C1=C(O)C(C)(C)CCC1=O [Compound T6] | 0 | 0 | 80 | 0 | 0 | 40 | 100 | 60 |
| CCc1ccc(-c2ccc(Cl)nc2)cc1C1=C(O)CC(C)(C)CC1=O [Compound T27] | 0 | 0 | 0 | 0 | 90 | 70 | 100 | 80 |
| CCc1ccc(-c2cc(Cl)c(Cl)cc2Cl)cc1C1=C(O)CCCC1=O [Compound T46] | 0 | 20 | 90 | 70 | 0 | 20 | 100 | 70 |
| CCc1ccc(-c2ccc(Cl)c(C(F)(F)F)c2)cc1C1=C(O)C(C)(C)CC(C)(C)C1=O [Compound T65] | 10 | 20 | 90 | 50 | 20 | 30 | 80 | 50 |
| CCc1ccc(-c2ccc(Cl)c(C(F)(F)F)c2)cc1C1=C(O)CCCC1=O [Compound T41] | 20 | 30 | 100 | 100 | 60 | 50 | 90 | 100 |
| CCc1ccc(-c2c(F)cc(Cl)cc2Cl)cc1C1=C(O)CCCC1=O [Compound T51] | 20 | 40 | 80 | 100 | 40 | 50 | 90 | 90 |
| CCc1ccc(-c2ccc(Cl)c(Cl)c2Cl)cc1C1=C(O)CCCC1=O [Compound T54] | 0 | 0 | 70 | 20 | 20 | 0 | 80 | 60 |
